Consider eleven compounds from patent US20180369264A1, “COMBINATION OF A CARDIAC STEROID AND AN AKT INHIBITOR FOR THE TREATMENT OF CARDIOVASCULAR DISEASES AND DISORDERS” (YISSUM RESEARCH DEVELOPMENT COMPANY OF THE HEBREW …, priority 2015, published 2018).

Several values for one entry are separate records, joined by “and”; a condition that tells them apart may be missing. Identical values can stand only once. Like-named read-outs stand apart in the source and are kept apart here.

In one data set the test system is Akt. The arrangement: scale not given here. The note with it: class symbols, key not given; cited from earlier work.
Data set [1] deals with wild-type zebrafish larvae heart. Format: in vivo, zebrafish (Danio rerio). The note with it: for effect on force of contraction / effect on heart rate: 1 nM. The method, then:
Experiments were performed on wild-type (WT, AB strain) zebrafish (Danio rerio). The fish were maintained in accordance with the principles established by the NIH. […] The fish were kept in swimming medium (E3 medium) in small aquaria at 28° C. and maintained under a 14h: 10h light:dark cycle. The zebrafish larvae were maintained in the presence of 0.1% methylene blue (M9140, Sigma-Aldrich Inc, Israel) at 28° C. All measurements were taken in embryos at 72 hours post fertilization (hpf).
Ouabain, bufalin, digoxin, acetylcholine, carbachol, […] (pp2) and U0126 (1,4-diamino-2,3-dicyano-1,4-bis(2-aminophenylthio)butadiene) were purchased from Sigma-Aldrich Inc., Israel. The compounds were dissolved in egg water (0.3 g Instant Ocean Salt in distilled water) to a final selected concentration, as specified in the following examples. […]
(§1) Filming process Zebrafish larvae heart imaging was performed using an Olympus CKX41 (Japan) […] microscope with ×10 or ×20 magnification, and integrated incandescent illumination. A FastCam imi-tech (Korea) high speed digital camera with 640×480 pixel gray scale image sensor was mounted on the microscope, using ImCam software (IMI Technology, Co. Ltd) for high speed video recording. The larvae were anesthetized by placing them in filming/anesthetizing medium. Each larva in 0.5 ml filming/anesthetizing medium was transferred to a 96-well tissue culture plate at room temperature and sequential images of the heart were obtained, with the larvae positioned on their side, at 80 fps during 10 seconds with a shutter speed of 0.016 seconds.
Physiological parameters of cardiovascular performance, as indicated hereinbelow, were evaluated in the zebrafish larvae. Image analysis applications ImageJ (NIH, USA) were used, allowing the delineation of the endomyocardial border at the end of systole or end of diastole to define the ventricular area. Sequential still frames were analyzed to capture ventricular end-systole and end-diastole images. End Systolic Area (ESA, FIG. 1B) and End Diastolic Area (EDA, FIG. 1C) were used to calculate Fractional Area Change (FAC), according to the equation: FAC=(EDA-ESA)/EDA*100. The Ejection Fraction (EF) was determined by an independent estimate of ventricular volume. This was achieved by placing scan lines across the midventricular short axis (SA) and long axis (LA) at the end of systole (FIG. 1D) and diastole (FIG. 1E). […] EF was then calculated according to the equation: EF=(EDV-ESV)/EDV*100. Heart rate (HR) was measured in beats per minute. Cardiac output (CO) was calculated according to the equation: CO=(EDV-ESV)*HR. A minimum of five sequential pairs of systolic and diastolic cycles were measured and analyzed in 9-12 larvae for each treatment.

Data set [2] deals with zebrafish accordion mutant (acc) larvae heart. The experiment in a line: In-vivo heart contractility measurements in zebrafish acc mutant larvae. The note with it: 1 nM, 90 minutes. Also on record: species or system zebrafish (Danio rerio). As to the method: Ouabain, bufalin, digoxin, acetylcholine, carbachol, […] (pp2) and U0126 (1,4-diamino-2,3-dicyano-1,4-bis(2-aminophenylthio)butadiene) were purchased from Sigma-Aldrich Inc., Israel. The compounds were dissolved in egg water (0.3 g Instant Ocean Salt in distilled water) to a final selected concentration, as specified in the following examples. The larvae in 20 μL of E3 medium were transferred to the egg water solution containing one or two of the above specified drugs of choice, and incubated for 60-90 minutes at 28° C.
as §1
Physiological parameters of cardiovascular performance, as indicated hereinbelow, were evaluated in the zebrafish larvae. […] Sequential still frames were analyzed to capture ventricular end-systole and end-diastole images. […] The Ejection Fraction (EF) was determined by an independent estimate of ventricular volume. […] EF was then calculated according to the equation: EF=(EDV-ESV)/EDV*100. Heart rate (HR) was measured in beats per minute. Cardiac output (CO) was calculated according to the equation: CO=(EDV-ESV)*HR. A minimum of five sequential pairs of systolic and diastolic cycles were measured and analyzed in 9-12 larvae for each treatment.

Another data set relates to ERK. The experiment in a line: ERK phosphorylation in adult zebrafish heart (Western blot). Format: in vivo. The note with it: adult zebrafish heart, control experiments. The method, then: Adult zebrafish (˜12-months-old) were transferred to swimming medium containing 1 μM of CS drugs, as specified in the following examples. At various time points (5-30 min), as indicated in the following examples, the zebrafish were transferred to perfusion buffer and the hearts were immediately removed and transferred to RIPA lysis buffer (Sigma-Aldrich), and protease inhibitor cocktail (P8340, Sigma-Aldrich), at a 1:100 dilution). The tissue was homogenized in an ultrasonic homogenizer (Microson, NY, USA) and aliquots of the homogenate were stored at −70° C. until used.
Protein dilution and separation on SDS-PAGE electrophoresis, their transfer to a polyvinylidene fluoride membrane were carried out. […] The membranes were washed with TBS containing 0.1% Tween and exposed to horseradish peroxidase-conjugated secondary goat anti-rabbit IgG antibody (1:50,000). The membranes were stripped prior to their exposure to a different antibody. Detection was carried out with the aid of a Luminata™ Crescendo Western HRP Substrates, according to the manufacturer's instructions.
In general terms: A western blot detects proteins with antibodies after separation by electrophoresis.

In data set [3] the test system is primary adult zebrafish cardiomyocytes. As to the kind of experiment: Primary adult zebrafish cardiomyocyte contractility. Format: cell-based. As to the method:
Adult (4 to 12-month-old) ventricular myocytes were obtained by enzymatic dissociation (with collagenase II and IV, at 5 mg/ml, each). The zebrafish were stunned by a blow to the head and the brain was pithed. The heart was quickly removed and placed in a small Petri dish containing 10 ml isolation solution: 100 mM NaCl, 10 mM KCl, 1.2 mM KH2PO4, 4 mM MgSO4, 50 mM taurine, 20 mM glucose, and 10 mM Hepes, pH 6.9. The ventricle was cut free from the bulbus and atrium under a binocular. Ventricles from 3 fish were incubated for 45 minutes at 32° C. in a solution containing perfusion buffer (150 mM NaCl, 5.4 mM KCl, 1.5 mM MgSO4, 0.4 mM NaH2PO4, 2 mM CaCl2, 10 mM glucose, and 10 mM Hepes, pH 7.7). Collagenases II and IV (Gibco, NY, USA, 5 mg/ml each) and additional CaCl2 (2.012 mM final concentration) were added. Following Eppendorf centrifugation (1 minute, 250×g at room temperature) the precipitated cells were suspended in 1 ml perfusion buffer for 30 minutes at room temperature before use.
Cells were transferred to a chamber with a quartz base and examined using an inverted epifluorescence microscope (Nikon Diaphot 200, Japan). The myocytes were field-stimulated (0.5 Hz, 70 V, square waves) and contractions were measured using a video motion edge detector (Crescent Electronics, Sandy, Utah, USA) at the rate of 5 Hz. Cardiomyocyte performance was calculated as the percentage of resting cell length. The slopes of contraction and relaxation (+dL/dt and −dL/dt) were calculated from the linear portions of the changes in contractility. 9 cells per each group were measured. Each of the experiments was repeated at least 3 times with identical results.

The conditions of data set [4]: in vivo; cited from earlier work.
Setting [5] is: wt, ERK inhibitor experiment, 0.1 nM Oua, 10 nM PD98059, 20 minutes, 0.5 Hz.

Regarding `CCCCCCCCCCCCCCCCOP(=O)([O-])OCC[N+](C)(C)C` [Miltefosine, hexadecyl 2-(trimethylazaniumyl)ethyl phosphate], the Akt entry in the data set on Akt is “✓”.
For the compound `C=CCc1ccc(O)c(-c2ccc(O)c(CC=C)c2)c1` [Honokiol, 2-(4-hydroxy-3-prop-2-enylphenyl)-4-prop-2-enylphenol], in the data set on Akt, the Akt result was “✓”.
`Cc1ccccc1CN1C2=NCCN2C(=O)C2=C1CCN(Cc1ccccc1)C2` [TIC10 Analogue, 2,6,7,8,9,10-hexahydro-10-[(2-methylphenyl)methyl]-7-(phenylmethyl)-imidazo[1,2-a]pyrido[4,3-d]pyrimidin-5(3H)-one]: the Akt entry in the data set with Akt is given as “✓”.
Regarding `CNC[C@H](O)c1ccc(O)c(O)c1` [adrenalin], in data set [1] (zebrafish, in vivo), the “effect on heart contractility and rate” value was “significant increase in heart contractility and rate”; the “effect on heart force of contraction and rate” value was “increase in heart contractility and rate”; the “increase in CO” value was 18.34±1.97% and 30.48±2.67%.
For the compound `C[N+](C)(C)CCOC(N)=O` [carbachol], the “reduction in cardiac output (CO)” value in data set [1] (1 μM, 90 minutes, wt larvae) is 10.39±2.2%; in data set [1] (10 μM, 90 minutes, wt larvae) it was 16.92±3%. Further, the “effect on heart force of contraction and rate” value in data set [1] (1 and 10 μM, 90 minutes, wt larvae) is “decreased the heart force of contraction and rate”.
In the case of `CC(C)(C)n1nc(-c2ccc(Cl)cc2)c2c(N)ncnc21` [PP2], in data set [1] (PP2 50 nM, U0126 1 μM, MK-2206 10 nM for 2 hours), the “effect of inhibitor alone on heart function / basal contractility” value was “did not affect heart function”. Also, the “effect on CS-induced increase in contractility” value in data set [1] (inhibitor 30 minutes (PP2 50 nM; U0126 1 μM), then CS, measured 90 minutes later) is recorded as “completely abolished the CS-induced increase in contractility”.
Turning to `C[C@]12CC[C@H](O)C[C@H]1CC[C@@H]1[C@@H]2CC[C@]2(C)[C@@H](c3ccc(=O)oc3)CC[C@]12O` [bufalin, 5-[(3 S,5R,8R,9S,10S,13R,14S,17R)-3,14-dihydroxy-10,13-dimethyl-1,2,3,4,5,6,7,8,9,11,12,15,16,17-tetradecahydrocyclopenta[a]phenanthren-17-yl]pyran-2-one], the “effect on heart contractility” value in data set [2] is listed as “no effect on heart contractility”. For the same compound, in data set [1], the “effect on force of contraction” value is on record as “increased significantly the force of contraction” and the “effect on heart rate” value is recorded as “without affecting heart rate”. Besides, the “concentration producing a significant increase in heart contractility” value in data set [1] (added to larvae swimming medium) came out at 0.1 nM.
On to `Cc1ccccc1CN1C(=O)C2=C(CCN(Cc3ccccc3)C2)N2CCN=C12` [TIC10, 2,4,6,7,8,9-hexahydro-4-[(2-methylphenyl)methyl]-7-(phenylmethyl)-imidazo[1,2-a]pyrido[3,4-e]pyrimidin-5(1H)-one], for which the Akt result in the data set on Akt is on record as “✓”.
Turning to `COc1cccc(-c2cc(=O)c3ccccc3o2)c1N` [PD98059, 2′-amino-3′-methoxyflavone], in the data set on ERK, the “effect on CS-induced increase in ERK phosphorylation” value is recorded as “inhibit the CS-induced increase in ERK phosphorylation”. Moreover, in data set [3] (10 nM PD98059), the “amplitude of cell contraction, inhibitor alone” value was “did not affect the amplitude of cell contraction”; the “contractility and relaxation rise time, inhibitor alone” value was “increased contractility and relaxation rise time”. The “ouabain-induced increases in all contractility parameters in the presence of the inhibitor” value in data set [3] (10 nM PD98059, 0.1 nM ouabain) is reported as “completely prevented”. Further, in data set [3] (setting [5]), the Amplitude is on record as 0.13 ± 0.01, the “Contraction Rate (−dv/dt)” value amounted to 0.87 ± 0.09 and the “Relaxation Rate (+dv/dt)” value was found to be 0.78 ± 0.14.
As to `C[C@H]1O[C@@H](O[C@@H]2[C@@H](O)C[C@H](O[C@@H]3[C@@H](O)C[C@@H](O[C@H]4CC[C@@]5(C)[C@H](CC[C@@H]6[C@@H]5C[C@@H](O)[C@]5(C)C(C7=CC(=O)OC7)CC[C@]65O)C4)O[C@@H]3C)O[C@@H]2C)C[C@H](O)[C@H]1O` (stereo partly drawn) [digoxin, 4-[(3 S,5R,8R,9S,10S,12R,13 S, 14S)-3-[(2S,4S,5R,6R)-5-[(2S,4S,5R,6R)-5-[(2S,4S,5R,6R)-4,5-dihydroxy-6-methyl-oxan-2-yl]oxy-4-hydroxy-6-methyl-oxan-2-yl]oxy-4-hydroxy-6-methyl-oxan-2-yl]oxy-12,14-dihydroxy-10,13-dimethyl-1,2,3,4,5,6,7,8,9,11,12,15,16,17-tetradecahydrocyclopenta[a]phenanthren-17-yl]-5H-furan-2-one], in data set [2], the “effect on heart contractility” value is listed as “no effect on heart contractility”. In data set [1], the “effect on force of contraction” value was “increased significantly the force of contraction” and the “effect on heart rate” value is given as “without affecting heart rate”. Further, the “concentration required for a similar effect, relative to bufalin or ouabain” value in data set [1] (vs 0.1 nM bufalin or ouabain) is “about tenfold”. In addition, in data set [4], the “plasma concentration at which significant signs of toxicity are observed” value was 3 nM and the “plasma concentration considered beneficial” value is “about 1 nM”.
Turning to `N#CC(=C(N)Sc1ccccc1N)C(C#N)=C(N)Sc1ccccc1N` [U0126, 1,4-diamino-2,3-dicyano-1,4-bis(2-aminophenylthio)butadiene], the “effect on CS-induced increase in ERK phosphorylation” value with ERK is on record as “inhibit the CS-induced increase in ERK phosphorylation”. Further, in data set [1] (zebrafish, in vivo), the “effect of inhibitor alone on heart function / basal contractility” value is given as “did not affect basal contractility” and the “effect on CS-induced increase in contractility” value was “prevented the CS-induced increase in contractility”.
